From the supplement of paper PMC11208160

Assay: recombinant barcode read abundance after kanamycin selection (control-corrected) (log10(CPM+1)); higher = more efficient recombination; sequences stand for … in AGTGCAGAGAAAATCGGCCAGTTTTCTCTGCCTGCAGTCCGCATGCCGT…ATTTATGCAGCGGACTGCCTTTCTCCCAAAGTGATAAACCGGACAGTATCATGGACCGGTTTTCCCGGTAATCCGTATTTGCAAGGTTGGTTTCACT; site = the 11-nt target
Outline: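 Recombination efficiency draws on barcodes counted at recombinant junctions in a pooled E. coli screen of targets paired with IS621 bridge RNA target-binding loops. The counts were converted to counts per million, averaged and corrected against the chloramphenicol/ampicillin LB agar control, then reported as log10(CPM+1). Selection plates held chloramphenicol/ampicillin/kanamycin with 0.1 mM IPTG, with two replicates per condition.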

Row | Sequence | recombinant barcode read abundance (log10)
1 | TTATAAACTTGGGTTCTAACCTGTTGCCTCC [TTATAAACTAG_LTGcore_CT_RTGcore_GG] (site TTATAAACTAG) (LTG core: CT, RTG core: GG) | 0.179
2 | TTATAAACTTGGGTTCTAACCTGTTGCCTGA [TTATAAACTAG_LTGcore_CT_RTGcore_TC] (site TTATAAACTAG) (LTG core: CT, RTG core: TC) | 0.137
3 | TTATAAACTTGGGTTCTAACCTGTTGCCTTC [TTATAAACTAG_LTGcore_CT_RTGcore_GA] (site TTATAAACTAG) (LTG core: CT, RTG core: GA) | 0.0607
4 | TTATAAAGCTGGGTTCTAACCTGTTGCCTAG [TTATAAACTAG_LTGcore_GC_RTGcore_CT] (site TTATAAACTAG) (LTG core: GC, RTG core: CT) | 0.0375
5 | TTATAAAGGTGGGTTCTAACCTGTTGCCTAG [TTATAAACTAG_LTGcore_GG_RTGcore_CT] (site TTATAAACTAG) (LTG core: GG, RTG core: CT) | 0.0816
6 | TTATAAATATGGGTTCTAACCTGTTGCCTAG [TTATAAACTAG_LTGcore_TA_RTGcore_CT] (site TTATAAACTAG) (LTG core: TA, RTG core: CT) | 0.124
